Measurements as given in patent US9446039B2, “Aminoheteroaryl compounds as MTH1 inhibitors” (CEMM—FORSCHUNGSZENTRUM FÜR MOLEKULARE MEDIZIN GMBH, priority 2012, dated 2016).

What was measured:
Assay type in all cases: binding
[1] = biological target: T1, SW480 colon carcinoma cells lysate proteins (Homo sapiens, UniProt B2RPK0); conditions: PreyGene HMGB1P1
T1 sequence (B2RPK0 1-211): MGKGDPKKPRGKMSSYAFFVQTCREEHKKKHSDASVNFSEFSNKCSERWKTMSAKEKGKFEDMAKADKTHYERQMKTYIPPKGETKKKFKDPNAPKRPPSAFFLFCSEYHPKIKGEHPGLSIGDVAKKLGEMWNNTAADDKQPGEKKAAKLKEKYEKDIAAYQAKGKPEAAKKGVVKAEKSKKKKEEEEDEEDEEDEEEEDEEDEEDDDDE

[2] = biological target: T2, SW480 colon carcinoma cells lysate proteins (Homo sapiens, UniProt O60664); conditions: PreyGene PLIN3
T2 sequence (O60664 1-434): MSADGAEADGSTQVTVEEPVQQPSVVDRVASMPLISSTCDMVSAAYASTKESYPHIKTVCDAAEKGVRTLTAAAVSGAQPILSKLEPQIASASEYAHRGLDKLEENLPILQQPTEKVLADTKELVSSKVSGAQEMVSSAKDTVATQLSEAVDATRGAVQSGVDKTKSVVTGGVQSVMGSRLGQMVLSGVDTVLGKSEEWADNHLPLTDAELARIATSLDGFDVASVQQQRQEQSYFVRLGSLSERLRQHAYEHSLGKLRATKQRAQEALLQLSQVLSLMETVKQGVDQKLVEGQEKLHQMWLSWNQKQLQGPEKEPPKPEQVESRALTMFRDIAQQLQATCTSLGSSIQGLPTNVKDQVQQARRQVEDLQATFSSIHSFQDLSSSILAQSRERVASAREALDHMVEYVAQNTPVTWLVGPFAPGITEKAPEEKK

[3] = biological target: SW480 colon carcinoma cells lysate proteins (Homo sapiens, UniProt P26038); conditions: PreyGene MSN
[4] = biological target: SW480 colon carcinoma cells lysate proteins (Homo sapiens, UniProt P26447); conditions: PreyGene S100A4
[5] = biological target: SW480 colon carcinoma cells lysate proteins (Homo sapiens, UniProt P30153); conditions: PreyGene PPP2R1A
[6] = biological target: T3, SW480 colon carcinoma cells lysate proteins (Homo sapiens, UniProt P54577); conditions: PreyGene YARS
T3 sequence (P54577 1-528): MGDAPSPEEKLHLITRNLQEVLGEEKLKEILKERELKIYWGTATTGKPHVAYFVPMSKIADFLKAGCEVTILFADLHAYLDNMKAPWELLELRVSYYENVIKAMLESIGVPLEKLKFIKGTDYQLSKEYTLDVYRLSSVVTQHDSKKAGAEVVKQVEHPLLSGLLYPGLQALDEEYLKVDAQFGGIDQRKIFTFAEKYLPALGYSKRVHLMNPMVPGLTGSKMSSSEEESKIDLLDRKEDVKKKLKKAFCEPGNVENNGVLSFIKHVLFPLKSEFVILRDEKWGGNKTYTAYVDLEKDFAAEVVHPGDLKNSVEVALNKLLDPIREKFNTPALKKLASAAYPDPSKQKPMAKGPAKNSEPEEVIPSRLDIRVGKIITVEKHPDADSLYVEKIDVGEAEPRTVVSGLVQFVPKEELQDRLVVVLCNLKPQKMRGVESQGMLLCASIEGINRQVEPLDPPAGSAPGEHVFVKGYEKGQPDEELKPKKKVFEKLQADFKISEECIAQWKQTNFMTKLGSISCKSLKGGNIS

[7] = biological target: SW480 colon carcinoma cells lysate proteins (Homo sapiens, UniProt Q7Z406); conditions: PreyGene MYH14; SW480 cells
[8] = biological target: T4, SW480 colon carcinoma cells lysate proteins (Homo sapiens, UniProt Q96FQ6); conditions: PreyGene S100A16; SW480 cells
T4 sequence (Q96FQ6 1-103): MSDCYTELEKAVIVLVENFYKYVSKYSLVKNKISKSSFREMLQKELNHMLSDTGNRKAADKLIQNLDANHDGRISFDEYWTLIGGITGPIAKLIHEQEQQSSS

[9] = biological target: T5, SW480 colon carcinoma cells lysate proteins (Homo sapiens, UniProt Q9BRA2); conditions: PreyGene TXNDC17
T5 sequence (Q9BRA2 1-123): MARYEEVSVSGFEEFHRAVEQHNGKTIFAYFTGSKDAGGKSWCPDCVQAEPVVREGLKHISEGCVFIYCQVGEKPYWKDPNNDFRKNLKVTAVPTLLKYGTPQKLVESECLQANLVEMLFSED

[10] = biological target: SW480 colon carcinoma cells lysate proteins (Homo sapiens, UniProt Q9Y265); conditions: PreyGene RUVBL1
Chain of SW480 colon carcinoma cells lysate proteins (Homo sapiens, UniProt Q9Y265) (Q9Y265 whole entry): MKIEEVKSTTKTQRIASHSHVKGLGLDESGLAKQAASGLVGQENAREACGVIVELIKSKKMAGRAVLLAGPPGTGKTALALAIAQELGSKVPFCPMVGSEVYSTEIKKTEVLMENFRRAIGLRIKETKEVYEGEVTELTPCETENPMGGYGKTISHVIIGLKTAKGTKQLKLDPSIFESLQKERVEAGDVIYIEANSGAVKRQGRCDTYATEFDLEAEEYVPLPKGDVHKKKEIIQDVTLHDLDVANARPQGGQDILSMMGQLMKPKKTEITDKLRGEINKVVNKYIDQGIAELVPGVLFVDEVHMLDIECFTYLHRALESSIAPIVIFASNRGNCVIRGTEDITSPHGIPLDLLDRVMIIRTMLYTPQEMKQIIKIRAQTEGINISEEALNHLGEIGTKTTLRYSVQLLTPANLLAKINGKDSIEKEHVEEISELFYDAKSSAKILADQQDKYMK

Chain of SW480 colon carcinoma cells lysate proteins (Homo sapiens, UniProt P30153) (P30153 whole entry): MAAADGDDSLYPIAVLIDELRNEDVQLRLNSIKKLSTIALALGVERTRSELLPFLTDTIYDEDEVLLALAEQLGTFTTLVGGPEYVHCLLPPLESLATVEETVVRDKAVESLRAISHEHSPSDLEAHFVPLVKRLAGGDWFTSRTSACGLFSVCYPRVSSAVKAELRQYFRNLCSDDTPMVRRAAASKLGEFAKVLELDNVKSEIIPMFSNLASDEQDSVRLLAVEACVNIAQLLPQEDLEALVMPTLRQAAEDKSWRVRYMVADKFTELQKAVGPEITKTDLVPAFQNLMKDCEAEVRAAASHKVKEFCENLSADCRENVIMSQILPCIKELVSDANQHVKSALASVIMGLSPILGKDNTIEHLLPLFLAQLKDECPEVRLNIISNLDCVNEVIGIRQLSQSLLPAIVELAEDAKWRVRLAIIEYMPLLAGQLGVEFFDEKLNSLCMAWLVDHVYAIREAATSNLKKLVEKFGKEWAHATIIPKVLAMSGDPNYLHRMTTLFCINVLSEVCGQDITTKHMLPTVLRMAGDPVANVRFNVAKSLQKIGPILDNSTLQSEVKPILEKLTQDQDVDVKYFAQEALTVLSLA
Chain of SW480 colon carcinoma cells lysate proteins (Homo sapiens, UniProt P26038) (P26038 whole entry): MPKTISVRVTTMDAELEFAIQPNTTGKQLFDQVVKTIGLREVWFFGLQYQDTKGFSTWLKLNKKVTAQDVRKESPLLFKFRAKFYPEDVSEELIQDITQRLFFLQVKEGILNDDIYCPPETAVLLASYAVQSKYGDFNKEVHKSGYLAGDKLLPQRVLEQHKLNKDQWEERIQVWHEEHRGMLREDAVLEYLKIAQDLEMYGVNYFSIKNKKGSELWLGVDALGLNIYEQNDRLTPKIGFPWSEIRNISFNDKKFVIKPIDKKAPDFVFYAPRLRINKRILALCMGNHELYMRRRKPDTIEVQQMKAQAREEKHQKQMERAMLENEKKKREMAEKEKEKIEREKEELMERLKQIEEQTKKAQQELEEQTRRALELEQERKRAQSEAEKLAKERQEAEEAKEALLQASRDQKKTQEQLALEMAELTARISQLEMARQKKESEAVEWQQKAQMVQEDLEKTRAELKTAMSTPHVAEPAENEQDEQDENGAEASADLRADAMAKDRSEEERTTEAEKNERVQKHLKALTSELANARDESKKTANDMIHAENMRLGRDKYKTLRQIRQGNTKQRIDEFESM
Chain of SW480 colon carcinoma cells lysate proteins (Homo sapiens, UniProt P26447) (P26447 whole entry): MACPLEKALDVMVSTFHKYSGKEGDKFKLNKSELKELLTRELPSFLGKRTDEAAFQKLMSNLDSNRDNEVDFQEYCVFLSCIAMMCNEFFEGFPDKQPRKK
Chain of SW480 colon carcinoma cells lysate proteins (Homo sapiens, UniProt Q7Z406) (Q7Z406 whole entry): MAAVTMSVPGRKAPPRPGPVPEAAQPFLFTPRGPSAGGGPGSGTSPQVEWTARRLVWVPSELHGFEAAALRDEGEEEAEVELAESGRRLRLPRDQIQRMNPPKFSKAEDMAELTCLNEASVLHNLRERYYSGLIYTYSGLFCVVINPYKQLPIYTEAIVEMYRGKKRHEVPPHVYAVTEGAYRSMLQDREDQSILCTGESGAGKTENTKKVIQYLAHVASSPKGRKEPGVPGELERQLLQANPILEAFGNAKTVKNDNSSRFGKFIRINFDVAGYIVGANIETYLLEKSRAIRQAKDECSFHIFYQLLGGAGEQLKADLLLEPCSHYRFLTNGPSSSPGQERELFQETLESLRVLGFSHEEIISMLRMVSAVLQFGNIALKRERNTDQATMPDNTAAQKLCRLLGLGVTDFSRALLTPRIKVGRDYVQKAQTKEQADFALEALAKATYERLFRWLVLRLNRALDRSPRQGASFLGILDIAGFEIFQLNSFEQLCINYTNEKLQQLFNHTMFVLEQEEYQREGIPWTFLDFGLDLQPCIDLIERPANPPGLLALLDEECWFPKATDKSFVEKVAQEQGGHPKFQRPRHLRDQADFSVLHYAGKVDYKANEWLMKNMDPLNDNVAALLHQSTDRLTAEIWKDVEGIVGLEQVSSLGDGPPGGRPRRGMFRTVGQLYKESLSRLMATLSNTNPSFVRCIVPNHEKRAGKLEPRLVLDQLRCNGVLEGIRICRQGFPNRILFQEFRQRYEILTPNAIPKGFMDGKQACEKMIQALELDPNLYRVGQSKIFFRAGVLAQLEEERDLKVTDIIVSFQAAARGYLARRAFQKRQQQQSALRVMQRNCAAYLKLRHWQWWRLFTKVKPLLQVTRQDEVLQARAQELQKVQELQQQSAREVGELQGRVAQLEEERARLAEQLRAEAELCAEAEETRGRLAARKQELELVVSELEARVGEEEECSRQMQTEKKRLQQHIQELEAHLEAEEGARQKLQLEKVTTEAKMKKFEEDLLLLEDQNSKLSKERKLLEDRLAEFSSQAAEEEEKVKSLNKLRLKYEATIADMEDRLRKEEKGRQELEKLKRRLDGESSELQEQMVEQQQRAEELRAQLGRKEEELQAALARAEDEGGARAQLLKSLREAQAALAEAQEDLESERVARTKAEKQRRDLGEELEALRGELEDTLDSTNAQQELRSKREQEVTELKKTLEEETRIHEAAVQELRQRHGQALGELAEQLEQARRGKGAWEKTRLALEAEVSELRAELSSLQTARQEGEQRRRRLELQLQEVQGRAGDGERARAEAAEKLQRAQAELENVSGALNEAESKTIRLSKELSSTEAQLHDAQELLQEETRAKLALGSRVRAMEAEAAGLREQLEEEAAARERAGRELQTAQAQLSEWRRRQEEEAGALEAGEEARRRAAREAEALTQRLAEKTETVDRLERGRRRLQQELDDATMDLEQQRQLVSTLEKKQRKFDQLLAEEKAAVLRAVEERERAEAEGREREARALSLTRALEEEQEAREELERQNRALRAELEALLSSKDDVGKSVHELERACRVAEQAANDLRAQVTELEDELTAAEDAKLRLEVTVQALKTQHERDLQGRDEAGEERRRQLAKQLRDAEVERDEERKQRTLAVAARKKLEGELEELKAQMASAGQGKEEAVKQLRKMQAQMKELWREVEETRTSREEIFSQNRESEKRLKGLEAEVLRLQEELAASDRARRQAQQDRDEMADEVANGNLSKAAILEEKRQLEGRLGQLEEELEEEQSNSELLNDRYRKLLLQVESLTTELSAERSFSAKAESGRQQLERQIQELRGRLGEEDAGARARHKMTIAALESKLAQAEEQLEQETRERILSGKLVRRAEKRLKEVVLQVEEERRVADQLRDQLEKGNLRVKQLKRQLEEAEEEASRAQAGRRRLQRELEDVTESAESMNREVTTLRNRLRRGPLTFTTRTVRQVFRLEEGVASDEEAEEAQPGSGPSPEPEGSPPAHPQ

C[C@H](Oc1cc(-c2cnn(C3CCNCC3)c2)cnc1N)c1c(Cl)ccc(F)c1Cl [(5)-crizotinib]
0.3864: AvgP [10]
0.8429: AvgP [2]
13: Sum (SC.Exp.) [2]
3: SC.Exp. 1-2 [2] | SC.Exp. 2-1 [2] | SC.Exp. 2-2 [2] | SC.Exp. 1-1 [4] | SC.Exp. 1-1 [5] | SC.Exp. 1-2 [5] | Sum (SC.Exp.) [6] | SC.Exp. 1-2 [9] | SC.Exp. 1-2 [10]
2: SC.Exp. 1-1 [1] | SC.Exp. 1-2 [1] | SC.Exp. 1-2 [4] | SC.Exp. 1-1 [6] | SC.Exp. Sum [7] | SC.Exp. 1-1 [9] | SC.Exp. 1-1 [10]
0.2291: AvgP [3]
0.1862: AvgP [9]
22: Sum (SC.Exp.) [3]
0: SC.Exp. 2-1 [1] | SC.Exp. 2-2 [1] | SC.Exp. 2-1 [3] | SC.Exp. 2-2 [3] | SC.Exp. 2-1 [4] | SC.Exp. 2-2 [4] | SC.Exp. 2-1 [5] | SC.Exp. 2-2 [5] | SC.Exp. 2-1 [6] | SC.Exp. 2-2 [6] | AvgP [7] | SC.Exp. 2-1 [7] | SC.Exp. 2-2 [7] | AvgP [8] | SC.Exp. 1-2 [8] | SC.Exp. 2-1 [8] | SC.Exp. 2-2 [8] | SC.Exp. 2-1 [9] | SC.Exp. 2-2 [9] | SC.Exp. 2-1 [10] | SC.Exp. 2-2 [10]
0.3829: AvgP [1]
0.4042: AvgP [5]
0.2511: AvgP [6]
1: SC.Exp. 1-2 [6] | SC.Exp. 1-1 [7] | SC.Exp. 1-2 [7] | SC.Exp. 1-1 [8] | SC.Exp. Sum [8]
6: Sum (SC.Exp.) [5]
4: Sum (SC.Exp.) [1] | SC.Exp. 1-1 [2]
11: SC.Exp. 1-1 [3] | SC.Exp. 1-2 [3]
0.3894: AvgP [4]
5: Sum (SC.Exp.) [4] | Sum (SC.Exp.) [9] | Sum (SC.Exp.) [10]
